In patent US20240016781A1, “TREATMENT OF KRAS MUTANT CANCERS” (MEI Pharma, Inc., priority 2020, published 2024):
Where two headings read alike, the source gives them in different places.

Legend:
[1] = tested on: MYC (pSer62 and total) in MIA PACA-2 (G12C) cells; test: Western blot of MYC and pSer62-MYC in MIA PACA-2 cells; assay type: cell-based; settings: 4 μM Voruciclib
Protocol: Voruciclib is an oral inhibitor of CDKs 9, 4, 6, and 1 currently being tested in Phase 1B clinical trials for B-cell malignancies and acute myeloid leukemia. Voruciclib inhibition of CDK9 leads to decreased expression of transcriptional targets of RNA Pol II, such as Mcl1 and MYC. To test whether Voruciclib could be effective in cancers driven by dysregulated KRAS-MYC signaling, ˜20 cancer cell lines with KRAS mutations (G12A, G12C, G12D, G12S, G12V, G13C, G13D, Q61H) were treated in preclinical studies with Voruciclib. MTS and Cell Titer Glo assays were used to monitor growth in vitro. […] To investigate MYC protein stability, MIA PACA-2 (G12C) cells were treated with 4 μM Voruciclib for 5-240 min, followed by SDS-PAGE and Western Blotting analysis with α-MYC and α-pSer62-MYC antibodies. […] A 60% decrease in pSer62 was observed after 5 min that reached 80% by 60 min. […] The ability of Voruciclib to inhibit tumor growth in vivo was also tested in murine xenograft models. KRAS mutant human cancer cells HCT-116 (CRC, KRAS G13D), SW-480 (CRC, KRAS G12V), and H-460 (NSCLC, KRAS Q61H) were injected subcutaneously into SCID mice. Once tumors reached 5-10 mm in diameter, Voruciclib or vehicle were administered orally at 50, 100, or 200 mg/kg OD for 11-14 days. Tumors were measured every 2-3 days, and growth inhibition relative to control was calculated.
FIG. 32—Voruciclib causes rapid inhibition MYC pSer62 phosphorylation and reduces MYC protein levels. Immunoblot analyses of c-MYC, phospho-c-MYC (Ser62), and actin in MIA Paca-2 KRAS G12C mutant PDAC cells. (FIG. 32A) Cells were treated with vehicle control, voruciclib (VOR, 4 μM), or the AZD4573 (AZD, a CDK9 inhibitor, 400 nM) for the indicated times. (FIG. 32B) Cells were treated with various concentrations of voruciclib or AZD4573 for the indicated time. Relative densitometry values are indicated.

MIA PaCa-2 xenografts = test: CIVO intratumoral microinjection, MIA PaCa-2 xenografts; assay type: in vivo; settings: MIA PaCa-2 PDAC tumors
From the text: Replicate Tumors: n≥5. Time Point: 24 hr. Cell Line; MIA PaCa-2. Biomarker: CC3, H&E.
The original paraffin embedded fixed tumor blocks were sliced and stained for MCL-1 and total MYC using antibodies specific to each. The MYC staining is in red. The MCL-1 staining is in yellow. The nuclei are stained in blue. For MYC and MCL-1, a decrease in the signal indicates an on-target effect of VOR.

Solid Tumors = test: Monotherapy Phase 1 study in solid tumors, daily continuously schedule; assay type: in vivo, human
[2] = PK of voruciclib, 2 weeks of daily dosing followed by 1 week without dosing in a 21-day cycle (Table 3); assay type: in vivo, human; settings: for Accumulation Ratio (AUC0-24 h): Day 13/Day 1, 2 weeks daily dosing/1 week off; for AUC(0-inf) / Cmax / half-life / AUC(0-t) / Vd/F / Tmax: human, plasma, oral; for Vd/F: read-out: Vz/F; for Tmax: median
From the text: (§1) Voruciclib half life is designated as t½ in the tables (expressed in hours).
(§2) Voruciclib volume of distribution is designated as Vz/F (expressed in liters).

clinical = settings: human, in vivo
From the text: as §1, §2

[3] = SCID, mouse, in vivo, po, 100 mg/kg
Protocol: (§3) Animals were randomized into 2 groups when tumors reached 100 mm diameter. Group A assigned single dosing. […] Drug concentration was measured in tumor and plasma after last dose at the following time points: 0, 4, 8, 24, 48, 72 hrs. […] Concentration of voruciclib in plasma is in units of μg/ml and in μg/g for tumors.

MYC protein in AML cells = settings: 3 hr; cited from earlier work
in vivo = settings: SCID, mouse
Protocol: as §3

[4] = Daily continuously schedule, 75 to 500 mg, 39 pts
[5] = 75 mg, Day 1, 2 weeks daily dosing/1 week off, mean
[6] = 75 mg, Day 13, 2 weeks daily dosing/1 week off, mean
[7] = 150 mg, Day 1, 2 weeks daily dosing/1 week off, mean
[8] = 150 mg, Day 13, 2 weeks daily dosing/1 week off, mean
[9] = 300 mg, Day 1, 2 weeks daily dosing/1 week off, mean
[10] = 300 mg, Day 13, 2 weeks daily dosing/1 week off, n = 1
[11] = 600 mg, Day 1, 2 weeks daily dosing/1 week off, mean
[12] = 600 mg, Day 13, 2 weeks daily dosing/1 week off, mean
[13] = 850 mg, Day 1, 2 weeks daily dosing/1 week off, mean
[14] = 850 mg, Day 13, 2 weeks daily dosing/1 week off, mean

## CN1CC[C@@H](c2c(O)cc(O)c3c(=O)cc(-c4ccc(C(F)(F)F)cc4Cl)oc23)[C@@H]1CO [Voruciclib, (+)-trans-2-(2-Chloro-4-trifluoromethylphenyl)-5,7-dihydroxy-8-(2-hydroxymethyl-1-methylpyrrolidin-3-yl)-chromen-4-one]
[1]; 5 or 15 min
  decrease in total MYC protein: no decrease in total MYC protein
[1]; 60 min
  reduction in total MYC: 10%
[1]; 240 min
  reduction in total MYC: 50%
[1]; after 5 min
  decrease in pSer62 (MYC): 60%
[1]; by 60 min
  decrease in pSer62 (MYC): 80%
MIA PaCa-2 xenografts
  MYC positive cells: decrease in MYC
Solid Tumors; [4]
  best response: 12 SD lasting a median of 15 weeks
  disease control rate: 31%
Solid Tumors; Phase 1 daily dosing study, 17/25 patients tested
  patients with decreased c-MYC expression: 68%
[2]; 75 mg, mean
  Accumulation Ratio (AUC0-24 h): 2.937
[2]; 150 mg, mean
  Accumulation Ratio (AUC0-24 h): 2.129
[2]; 300 mg, mean
  Accumulation Ratio (AUC0-24 h): 2.602
[2]; 600 mg, mean
  Accumulation Ratio (AUC0-24 h): 2.064
[2]; 850 mg, mean
  Accumulation Ratio (AUC0-24 h): 3.139
[2]; [5]
  AUC(0-inf): 4210 ng·h/mL
  Cmax: 193 ng/mL
  half-life: 21.7 h
  Vd/F: 1280 L
[2]; 75 mg, Day 1, 2 weeks daily dosing/1 week off, mean, read-out: AUC0-24
  AUC(0-t): 2280 ng·h/mL
[2]; 75 mg, Day 1, 2 weeks daily dosing/1 week off, mean, read-out: AUC0-t
  AUC(0-t): 2280 ng·h/mL
[2]; 75 mg, Day 1, 2 weeks daily dosing/1 week off
  Tmax: 4 h
[2]; [6]
  AUC(0-inf): 8660 ng·h/mL
  Cmax: 313 ng/mL
  half-life: 16.9 h
  Vd/F: 349 L
[2]; 75 mg, Day 13, 2 weeks daily dosing/1 week off, mean, read-out: AUC0-24
  AUC(0-t): 5290 ng·h/mL
[2]; 75 mg, Day 13, 2 weeks daily dosing/1 week off, mean, read-out: AUC0-t
  AUC(0-t): 5290 ng·h/mL
[2]; 75 mg, Day 13, 2 weeks daily dosing/1 week off
  Tmax: 4 h
[2]; [7]
  AUC(0-inf): 15800 ng·h/mL
  Cmax: 456 ng/mL
  half-life: 32.5 h
  Vd/F: 1650 L
[2]; 150 mg, Day 1, 2 weeks daily dosing/1 week off, mean, read-out: AUC0-24
  AUC(0-t): 6980 ng·h/mL
[2]; 150 mg, Day 1, 2 weeks daily dosing/1 week off, mean, read-out: AUC0-t
  AUC(0-t): 6980 ng·h/mL
[2]; 150 mg, Day 1, 2 weeks daily dosing/1 week off
  Tmax: 4 h
[2]; [8]
  AUC(0-inf): 28200 ng·h/mL
  Cmax: 896 ng/mL
  half-life: 26.1 h
  Vd/F: 459 L
[2]; 150 mg, Day 13, 2 weeks daily dosing/1 week off, mean, read-out: AUC0-24
  AUC(0-t): 13000 ng·h/mL
[2]; 150 mg, Day 13, 2 weeks daily dosing/1 week off, mean, read-out: AUC0-t
  AUC(0-t): 13000 ng·h/mL
[2]; 150 mg, Day 13, 2 weeks daily dosing/1 week off
  Tmax: 4 h
[2]; [9]
  AUC(0-inf): 148000 ng·h/mL
  Cmax: 1000 ng/mL
  half-life: 138 h
  Vd/F: 3980 L
[2]; 300 mg, Day 1, 2 weeks daily dosing/1 week off, mean, read-out: AUC0-24
  AUC(0-t): 15700 ng·h/mL
[2]; 300 mg, Day 1, 2 weeks daily dosing/1 week off, mean, read-out: AUC0-t
  AUC(0-t): 15700 ng·h/mL
[2]; 300 mg, Day 1, 2 weeks daily dosing/1 week off
  Tmax: 6 h
[2]; 300 mg, Day 13, 2 weeks daily dosing/1 week off, mean
  Cmax: 2100 ng/mL
[2]; 300 mg, Day 13, 2 weeks daily dosing/1 week off, mean, read-out: AUC0-24
  AUC(0-t): 40400 ng·h/mL
[2]; 300 mg, Day 13, 2 weeks daily dosing/1 week off, mean, read-out: AUC0-t
  AUC(0-t): 40400 ng·h/mL
[2]; 300 mg, Day 13, 2 weeks daily dosing/1 week off
  Tmax: 12 h
[2]; [10]
  AUC(0-inf): 59300 ng·h/mL
  half-life: 16.2 h
  Vd/F: 185 L
[2]; [11]
  AUC(0-inf): 61500 ng·h/mL
  Cmax: 1630 ng/mL
  half-life: 32.5 h
  Vd/F: 1550 L
[2]; 600 mg, Day 1, 2 weeks daily dosing/1 week off, mean, read-out: AUC0-24
  AUC(0-t): 24800 ng·h/mL
[2]; 600 mg, Day 1, 2 weeks daily dosing/1 week off, mean, read-out: AUC0-t
  AUC(0-t): 24800 ng·h/mL
[2]; 600 mg, Day 1, 2 weeks daily dosing/1 week off
  Tmax: 4 h
[2]; [12]
  AUC(0-inf): 86000 ng·h/mL
  Cmax: 2940 ng/mL
  half-life: 19 h
  Vd/F: 394 L
[2]; 600 mg, Day 13, 2 weeks daily dosing/1 week off, mean, read-out: AUC0-24
  AUC(0-t): 43500 ng·h/mL
[2]; 600 mg, Day 13, 2 weeks daily dosing/1 week off, mean, read-out: AUC0-t
  AUC(0-t): 43500 ng·h/mL
[2]; 600 mg, Day 13, 2 weeks daily dosing/1 week off
  Tmax: 4 h
[2]; [13]
  AUC(0-inf): 109000 ng·h/mL
  Cmax: 1730 ng/mL
  half-life: 50 h
  Vd/F: 2150 L
[2]; 850 mg, Day 1, 2 weeks daily dosing/1 week off, mean, read-out: AUC0-24
  AUC(0-t): 31400 ng·h/mL
[2]; 850 mg, Day 1, 2 weeks daily dosing/1 week off, mean, read-out: AUC0-t
  AUC(0-t): 31400 ng·h/mL
[2]; 850 mg, Day 1, 2 weeks daily dosing/1 week off
  Tmax: 9 h
[2]; [14]
  AUC(0-inf): 170000 ng·h/mL
  Cmax: 4450 ng/mL
  half-life: 22.4 h
  Vd/F: 315 L
[2]; 850 mg, Day 13, 2 weeks daily dosing/1 week off, mean, read-out: AUC0-24
  AUC(0-t): 83900 ng·h/mL
[2]; 850 mg, Day 13, 2 weeks daily dosing/1 week off, mean, read-out: AUC0-t
  AUC(0-t): 83900 ng·h/mL
[2]; 850 mg, Day 13, 2 weeks daily dosing/1 week off
  Tmax: 5 h
clinical
  additional time to clear from the tissue after it clears the plasma: 3 days
  time for the drug to be eliminated from the plasma after stopping: 5 to 10 days
  volume of distribution: High volume of distribution
  volume of distribution relative to blood volume: ~60 times
clinical; Half life
  half-life: 24 to 28 h
[3]
  voruciclib level in tumor at 8 hours compared to 24 hours post dosing: > 5 fold
MYC protein in AML cells
  MYC protein: decrease in MYC protein
In vivo
  Kp: > 5
